Structures are written as SMILES. Bounds are passed on as bounds.

The values that follow come from patent US20260297080A1, “BICYCLIC COMPOUNDS AS CDK INHIBITORS” (BeOne Medicines I GmbH, priority 2022, published 2026).

Experiment [1] deals with T1, CDK1/Cyclin B1 (Homo sapiens, UniProt P06493). The experiment is described as follows: CDK1/Cyclin B1 Biochemical Assay (TR-FRET), 1 mM ATP. The settings on record: 0.15 μM Rb (Ser780)-biotin substrate, pH7.0, 60 min preincubation, 90 min reaction, room temperature. As for the experimental part:
(§1) CDK2/Cyclin E1 and CDK1/Cyclin B1 Biochemical Assays
(§2) Compounds disclosed herein were tested for inhibition of CDK2/Cyclin E1 or CDK1/Cyclin B1 kinase in an assay based on the time-resolved fluorescence-resonance energy transfer (TR-FRET) methodology. The assay was carried out in 384-well low volume black plates in a reaction mixture containing CDK2/Cyclin E1 or CDK1/Cyclin B1, 1 mM ATP for CDK2/Cyclin E1 and CDK1/Cyclin B1, 0.15 μM Rb (Ser780)-biotin substrate and 0-10 μM compound in buffer containing 50 mM HEPES pH7.0, 0.02% NaN3, 0.01% BSA, 0.1 mM Orthovanadate, 50 mM MgCl2, 1 mM DTT and 0.005% Tween-20. The kinase was incubated with compound for 60 minutes at room temperature and the reaction was initiated by the addition of ATP and Rb (Ser780)-biotin substrate. After reaction at room temperature for 90 minutes, an equal volume of stop/detection solution was added according to the manufacture's instruction (Cisbio Bioassays). The stop/detection solution contained Streptavidin-XL665 and Anti-pRb (Ser780) mAb-Eu Cryptate in Detection buffer (Cisbio Bioassays). Plates were incubated at room temperature for 60 minutes, and the TR-FRET signals (ex337 nm, em665 nm/620 nm) were recorded on a PHERAstar FSX plate reader (BMG Labtech). The inhibition percentage of CDK2/Cyclin E1 or CDK1/Cyclin B1 kinase activity in presence of increasing concentrations of compounds was calculated based on the ratio of fluorescence at 665 nm to that at 620 nm. The IC50 for each compound was derived from fitting the data to the four-parameter logistic equation by Dotmatics.

For experiment [2], the target named is T2, CDK2/Cyclin E1 (Homo sapiens, UniProt P24941). The experiment is described as follows: CDK2/Cyclin E1 Biochemical Assay (TR-FRET), 1 mM ATP. The settings on record: 0.15 μM Rb (Ser780)-biotin substrate, pH7.0, 60 min preincubation, 90 min reaction, room temperature. As for the experimental part:
as §1, §2
Background: Time-resolved FRET reads energy transfer from a long-lived donor to a nearby acceptor.

Experiment [3] concerns the target T2, CDK2/Cyclin E1. The experiment in a line: CDK2/Cyclin E1 Biochemical Assay (TR-FRET), 0.060 mM ATP. The settings on record: 0.15 μM Rb (Ser780)-biotin substrate, pH7.0, 60 min preincubation, 120 min reaction, room temperature. Put shortly:
(§3)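 TR-FRET readout: 665/620 nm ratio from Eu-cryptate anti-pRb(Ser780) antibody plus streptavidin-XL665, converted to % inhibition and fitted (4-parameter logistic) for IC50. Reactions used 0.15 μM biotinylated Rb (Ser780) substrate, compound 0–10 μM, 60 min enzyme–compound preincubation, then 120 min reaction at room temperature.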

In experiment [4] the target is T1, CDK1/Cyclin B1. The experiment in a line: CDK1/Cyclin B1 Biochemical Assay (TR-FRET), 0.015 mM ATP. As to conditions: 0.15 μM Rb (Ser780)-biotin substrate, pH7.0, 60 min preincubation, 120 min reaction, room temperature. In short, it runs like this:
as §3

T1 sequence (P06493 whole entry): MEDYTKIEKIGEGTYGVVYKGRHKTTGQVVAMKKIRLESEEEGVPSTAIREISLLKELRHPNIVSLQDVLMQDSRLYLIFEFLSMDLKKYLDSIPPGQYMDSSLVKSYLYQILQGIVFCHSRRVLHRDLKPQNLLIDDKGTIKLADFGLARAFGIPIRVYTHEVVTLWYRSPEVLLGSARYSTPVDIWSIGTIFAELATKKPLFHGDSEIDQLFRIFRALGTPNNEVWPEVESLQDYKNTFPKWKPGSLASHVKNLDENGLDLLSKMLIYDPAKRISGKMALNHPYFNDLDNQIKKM
T1 sequence (P14635 whole entry partner): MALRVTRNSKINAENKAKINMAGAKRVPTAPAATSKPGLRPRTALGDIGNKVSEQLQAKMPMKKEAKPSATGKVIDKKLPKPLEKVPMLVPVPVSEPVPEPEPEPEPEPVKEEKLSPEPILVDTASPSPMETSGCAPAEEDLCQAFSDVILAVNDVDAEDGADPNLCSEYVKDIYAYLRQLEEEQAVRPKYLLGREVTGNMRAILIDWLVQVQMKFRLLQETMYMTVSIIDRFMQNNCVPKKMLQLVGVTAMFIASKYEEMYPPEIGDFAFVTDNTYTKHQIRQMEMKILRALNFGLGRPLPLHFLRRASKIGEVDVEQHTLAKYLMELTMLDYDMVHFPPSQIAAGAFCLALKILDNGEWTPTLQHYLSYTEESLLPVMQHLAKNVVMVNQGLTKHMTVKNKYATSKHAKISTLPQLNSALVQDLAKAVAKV

Regarding `O=C(NCC1CC1)O[C@H]1CC[C@@H](c2cc(Nc3cc4c(cc3F)S(=O)(=O)NC4)n[nH]2)C1` (relative stereo) [Example 420, cis-3-(3-((6-fluoro-1,1-dioxido-2,3-dihydrobenzo[d]isothiazol-5-yl)amino)-1H-pyrazol-5-yl)cyclopentyl(cyclopropylmethyl)carbamate], the IC50 (usually the point on the concentration scale where inhibition reaches its midpoint) against CDK1/Cyclin B1 [1] amounted to 5510 nM; against CDK2/Cyclin E1 [2] it was 24 nM.

Take `CCNC(=O)O[C@H]1CC[C@@H](c2cc(Nc3cc4c(cc3F)S(=O)(=O)NC4)n[nH]2)C1` (relative stereo) [Example 421, cis-3-(3-((6-fluoro-1,1-dioxido-2,3-dihydrobenzo[d]isothiazol-5-yl)amino)-1H-pyrazol-5-yl)cyclopentyl ethylcarbamate]: the IC50 at CDK1/Cyclin B1 [1] was greater than 10000 nM; at CDK2/Cyclin E1 [2], 135 nM.

Regarding `CC(C)(C)NC(=O)O[C@H]1CC[C@@H](c2cc(Nc3ccc4c(c3F)CS(=O)(=O)N4)n[nH]2)C1` (relative stereo) [Example 423, cis-3-(3-((4-fluoro-2,2-dioxido-1,3-dihydrobenzo[c]isothiazol-5-yl)amino)-1H-pyrazol-5-yl)cyclopentyl tert-butylcarbamate], the IC50 stood at 252 nM on CDK1/Cyclin B1 [1] and 2.7 nM against CDK2/Cyclin E1 [2].

Consider `CN1c2ccc(Nc3cc([C@@H]4CC[C@H](OC(=O)NC5CCOC5)C4)[nH]n3)cc2CS1(=O)=O` (relative stereo) [Example 424, cis-3-(3-((1-methyl-2,2-dioxido-1,3-dihydrobenzo[c]isothiazol-5-yl)amino)-1H-pyrazol-5-yl)cyclopentyl(tetrahydrofuran-3-yl)carbamate], for which the IC50 on CDK1/Cyclin B1 [1] was greater than 10000 nM; on CDK2/Cyclin E1 [2] it was 84 nM.

As for `CC(C)NC(=O)O[C@H]1CC[C@@H](c2cc(Nc3cc4c(cn3)S(=O)(=O)NC4)n[nH]2)C1` (relative stereo) [Example 425, cis-3-(3-((1,1-dioxido-2,3-dihydroisothiazolo[5,4-c]pyridin-5-yl)amino)-1H-pyrazol-5-yl)cyclopentyl isopropylcarbamate], the IC50 is greater than 10000 nM on CDK1/Cyclin B1 [1] and 1950 nM against CDK2/Cyclin E1 [2].

As to `CN1c2ccc(Nc3cc([C@@H]4CC[C@H](OC(=O)NCC5(O)CC5)C4)[nH]n3)cc2CS1(=O)=O` (relative stereo) [Example 426, cis-3-(3-((1-methyl-2,2-dioxido-1,3-dihydrobenzo[c]isothiazol-5-yl)amino)-1H-pyrazol-5-yl)cyclopentyl((1-hydroxycyclopropyl)methyl)carbamate], the IC50 was found to be 4870 nM against CDK1/Cyclin B1 [1] and 51 nM against CDK2/Cyclin E1 [2].

As to `O=C(NC1CCOC1)O[C@H]1CC[C@@H](c2cc(Nc3ccc4c(c3)CS(=O)(=O)N4)n[nH]2)C1` (relative stereo) [Example 428, cis-3-(3-((2,2-dioxido-1,3-dihydrobenzo[c]isothiazol-5-yl)amino)-1H-pyrazol-5-yl)cyclopentyl(tetrahydrofuran-3-yl)carbamate], the IC50 was determined as 4850 nM against CDK1/Cyclin B1 [1] and 21 nM on CDK2/Cyclin E1 [2].

Regarding `O=C(NC1CCOC1)O[C@H]1CC[C@@H](c2cc(Nc3ccc4c(c3F)CS(=O)(=O)N4C3CC3)n[nH]2)C1` (relative stereo) [Example 429, cis-3-(3-((1-cyclopropyl-4-fluoro-2,2-dioxido-1,3-dihydrobenzo[c]isothiazol-5-yl)amino)-1H-pyrazol-5-yl)cyclopentyl(tetrahydrofuran-3-yl)carbamate], the half-inhibitory concentration (IC50) against CDK1/Cyclin B1 [1] was greater than 10000 nM; on CDK2/Cyclin E1 [2], 133 nM.

Take `O=C(NC1CCOC1)O[C@H]1CC[C@@H](c2cc(Nc3ccc4c(c3F)CS(=O)(=O)N4)n[nH]2)C1` (relative stereo) [Example 431, cis-3-(3-((4-fluoro-2,2-dioxido-1,3-dihydrobenzo[c]isothiazol-5-yl)amino)-1H-pyrazol-5-yl)cyclopentyl(tetrahydrofuran-3-yl)carbamate]: the concentration for half-maximal inhibition (IC50) is greater than 10000 nM against CDK1/Cyclin B1 [1] and 42 nM on CDK2/Cyclin E1 [2].

As for `CCC(=O)CNC(=O)O[C@H]1CC[C@@H](c2cc(Nc3ccc4c(c3F)CS(=O)(=O)N4)n[nH]2)C1` (relative stereo) [Example 432, cis-3-(3-((4-fluoro-2,2-dioxido-1,3-dihydrobenzo[c]isothiazol-5-yl)amino)-1H-pyrazol-5-yl)cyclopentyl(2-oxobutyl)carbamate], the results for the 50% inhibitory concentration (IC50) on CDK1/Cyclin B1 [1] and on CDK2/Cyclin E1 [2] were 1320 nM and 23 nM, respectively.

Turning to `CC[C@H](C)NC(=O)O[C@H]1CC[C@@H](c2cc(Nc3ccc4c(c3F)CS(=O)(=O)N4CC(C)(C)O)n[nH]2)C1` (relative stereo) [Example 434, cis-3-(3-((4-fluoro-1-(2-hydroxy-2-methylpropyl)-2,2-dioxido-1,3-dihydrobenzo[c]isothiazol-5-yl)amino)-1H-pyrazol-5-yl)cyclopentyl((S)-sec-butyl)carbamate], the IC50 against CDK1/Cyclin B1 [1] was 747 nM; against CDK2/Cyclin E1 [2], 1.7 nM.

On to `CC(C)(O)CN1c2ccc(Nc3cc([C@@H]4CC[C@H](OC(=O)NC5(C)CC5)C4)[nH]n3)c(F)c2CS1(=O)=O` (relative stereo) [Example 435, cis-3-(3-((4-fluoro-1-(2-hydroxy-2-methylpropyl)-2,2-dioxido-1,3-dihydrobenzo[c]isothiazol-5-yl)amino)-1H-pyrazol-5-yl)cyclopentyl(1-methylcyclopropyl)carbamate], for which the IC50 against CDK1/Cyclin B1 [1] came out at 423 nM; on CDK2/Cyclin E1 [2], 1.3 nM.

Turning to `CCCNC(=O)O[C@@H]1CC[C@H](c2cc(Nc3ccc4c(c3F)CS(=O)(=O)N4CC(F)(F)F)n[nH]2)C1` [Example 266a], the IC50 at CDK2/Cyclin E1 [3] is 3.3 nM; against CDK1/Cyclin B1 [4] it was 96 nM.

On to `CCCNC(=O)O[C@H]1CC[C@@H](c2cc(Nc3ccc4c(c3F)CS(=O)(=O)N4CC(F)(F)F)n[nH]2)C1` [Example 266b], for which the IC50 against CDK2/Cyclin E1 [3] was found to be 3.5 nM; against CDK1/Cyclin B1 [4], 59 nM.

On to `CN1c2ccc(Nc3cc([C@H]4CC[C@@H](OC(=O)NC(C)(C)C)C4)[nH]n3)cc2CS1(=O)=O` [Example 391a], for which the IC50 worked out at 0.7 nM against CDK2/Cyclin E1 [3] and 17 nM against CDK1/Cyclin B1 [4].

For the molecule `CN1c2ccc(Nc3cc([C@@H]4CC[C@H](OC(=O)NC(C)(C)C)C4)[nH]n3)cc2CS1(=O)=O` [Example 391b], the IC50 worked out at 0.9 nM at CDK2/Cyclin E1 [3] and 7.8 nM on CDK1/Cyclin B1 [4].

For the molecule `CC(C)NC(=O)O[C@H]1C[C@@H](c2cc(Nc3cc4c(cc3F)S(=O)(=O)NC4)n[nH]2)C1` [Example 397, (1s,3s)-3-(3-((6-fluoro-1,1-dioxido-2,3-dihydrobenzo[d]isothiazol-5-yl)amino)-1H-pyrazol-5-yl)cyclobutyl isopropylcarbamate], the results for the IC50 against CDK2/Cyclin E1 [3] and against CDK1/Cyclin B1 [4] were 103 nM and 2020 nM, respectively.

On to `CC(C)(C)NC(=O)O[C@@H]1CC[C@H](c2cc(Nc3ccc4c(c3)CS(=O)(=O)N4)n[nH]2)C1` [Example 403a], for which the IC50 amounted to 1 nM against CDK2/Cyclin E1 [3] and 10 nM on CDK1/Cyclin B1 [4].

As for `CC(C)(C)NC(=O)O[C@H]1CC[C@@H](c2cc(Nc3ccc4c(c3)CS(=O)(=O)N4)n[nH]2)C1` [Example 403b], the IC50 was 1.1 nM against CDK2/Cyclin E1 [3] and 7.3 nM on CDK1/Cyclin B1 [4].

Take `CC(C)(C)NC(=O)O[C@@H]1CC[C@H](c2cc(Nc3cc4c(cc3F)NS(=O)(=O)C4)n[nH]2)C1` [Example 404a]: the 50% inhibitory concentration (IC50) on CDK2/Cyclin E1 [3] is 18 nM; against CDK1/Cyclin B1 [4], 717 nM.

Take `CC(C)(C)NC(=O)O[C@H]1CC[C@@H](c2cc(Nc3cc4c(cc3F)NS(=O)(=O)C4)n[nH]2)C1` [Example 404b]: the IC50 on CDK2/Cyclin E1 [3] is 14 nM; at CDK1/Cyclin B1 [4], 458 nM.

As for `CC[C@H](C)NC(=O)O[C@H]1C[C@@H](c2cc(Nc3cc4c(cc3F)S(=O)(=O)NC4)n[nH]2)C1` [Example 410, (1s,3R)-3-(3-((6-fluoro-1,1-dioxido-2,3-dihydrobenzo[d]isothiazol-5-yl)amino)-1H-pyrazol-5-yl)cyclobutyl((S)-sec-butyl)carbamate], the results for the IC50 at CDK2/Cyclin E1 [3] and against CDK1/Cyclin B1 [4] were 27 nM and 884 nM, respectively.

On to `CC1(NC(=O)O[C@H]2C[C@@H](c3cc(Nc4cc5c(cc4F)S(=O)(=O)NC5)n[nH]3)C2)CC1` [Example 411, (1s,3s)-3-(3-((6-fluoro-1,1-dioxido-2,3-dihydrobenzo[d]isothiazol-5-yl)amino)-1H-pyrazol-5-yl)cyclobutyl(1-methylcyclopropyl)carbamate], for which the IC50 against CDK2/Cyclin E1 [3] stood at 9.4 nM; against CDK1/Cyclin B1 [4], 386 nM.
